Data as given in BindingDB's records for doi:10.1016/j.bmc.2011.09.058 (National Chemical Laboratory (Csir-Ncl), 2011).

Biological target: T1, Papain (Carica papaya, UniProt P00784)
T1 sequence (P00784 whole entry): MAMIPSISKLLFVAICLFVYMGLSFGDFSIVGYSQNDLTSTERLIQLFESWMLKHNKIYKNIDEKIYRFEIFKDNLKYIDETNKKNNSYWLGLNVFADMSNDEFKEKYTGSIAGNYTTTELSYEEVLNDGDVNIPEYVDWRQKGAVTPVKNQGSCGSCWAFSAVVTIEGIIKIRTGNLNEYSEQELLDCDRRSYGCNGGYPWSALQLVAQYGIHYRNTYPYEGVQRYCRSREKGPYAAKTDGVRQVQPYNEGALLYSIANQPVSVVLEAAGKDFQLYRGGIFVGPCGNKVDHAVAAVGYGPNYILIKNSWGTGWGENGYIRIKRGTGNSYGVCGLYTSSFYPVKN
Assay: Inhibition of papaya papain using BAPNA as substrate assessed as p-nitroaniline release by spectrophotometric analysis

In the case of `CCOP(=O)(CC=C(NC(=O)[C@H](CC(C)C)NC(=O)OCc1ccccc1)c1ccccc1)OCC`, the IC50 is reported as > 200 µM.
In the case of `CCOP(=O)(CC=C(NC(=O)[C@H](CC(C)C)NC(=O)OC(C)(C)C)c1ccccc1)OCC`, the IC50 is reported as > 200 µM.
With `CCOP(=O)(CC=C(NC(=O)[C@H](Cc1c[nH]c2ccccc12)NC(=O)OCc1ccccc1)c1ccccc1)OCC` the IC50 was > 200 µM.
For `CCOP(=O)(CC=C(NC(=O)[C@H](CC(C)C)NC(=O)OCC1c2ccccc2-c2ccccc21)c1ccccc1)OCC`, the IC50 was > 200 µM.
